Columns and labels:
CDK1/cyclin B = biological target: T1, CDK1/cyclin B (Homo sapiens, UniProt P06493); assay: CDK family off-target kinase activity (Eurofins); assay type: biochemical
T1 construct: purchased Eurofins Pharma Discovery Services UK Ltd
Method: (§1) GFH009 inhibition activity against the CDK9/cyclin T1 complex as well as off-target CDK family reactivity were assayed by Eurofins Pharma Discovery Services UK Ltd., (Dundee, UK). Determination of off-target inhibition of other kinases was conducted by DiscoverX LeadHunter Discovery Services (Freemont, CA, USA.) GFH009 reactivity to GPCR family members was assayed by Wuxi AppTech (Shanghai, China).
(§2) The pharmacodynamic and mechanistic foundation for the
(§3) CDK9 inhibitor for the treatment of hematologic malignancies
(§4) Supplementary Table 1: Inhibitory action of GFH009 on other CDK family members
(§5) Various CDK/ Remaining enzymatic activity (%) after
(§6) cognate cyclin pairs tested exposure to GFH009 at a concentration of Selectivity vs. CDK9
(§7) (also on this page, place not known: www.oncotarget.com Oncotarget, Materials Supplementary)
(§8) (1 picture or pasted object on this page, not shown here)

CDK12/cyclin K = biological target: T2, CDK12/cyclin K (Homo sapiens, UniProt Q9NYV4); assay: CDK family off-target kinase activity (Eurofins); assay type: biochemical
T2 construct: purchased Eurofins Pharma Discovery Services UK Ltd
Method: as §1, §2, §3, §4, §5, §6, §7, §8

CDK14/cyclin Y = biological target: T3, CDK14/cyclin Y (Homo sapiens, UniProt O94921); assay: CDK family off-target kinase activity (Eurofins); assay type: biochemical
T3 construct: purchased Eurofins Pharma Discovery Services UK Ltd
Method: as §1, §2, §3, §4, §5, §6, §7, §8

CDK16/cyclin Y = biological target: T4, CDK16/cyclin Y (Homo sapiens, UniProt Q00536); assay: CDK family off-target kinase activity (Eurofins); assay type: biochemical
T4 construct: purchased Eurofins Pharma Discovery Services UK Ltd
Method: as §1, §2, §3, §4, §5, §6, §7, §8

CDK17/cyclin Y = biological target: T5, CDK17/cyclin Y (Homo sapiens, UniProt Q00537); assay: CDK family off-target kinase activity (Eurofins); assay type: biochemical
T5 construct: purchased Eurofins Pharma Discovery Services UK Ltd
Method: as §1, §2, §3, §4, §5, §6, §7, §8

CDK18/cyclin Y = biological target: T6, CDK18/cyclin Y (Homo sapiens, UniProt Q07002); assay: CDK family off-target kinase activity (Eurofins); assay type: biochemical
T6 construct: purchased Eurofins Pharma Discovery Services UK Ltd
Method: as §1, §2, §3, §4, §5, §6, §7, §8

CDK2/cyclin A = biological target: T7, CDK2/cyclin A (Homo sapiens, UniProt P24941); assay: CDK family off-target kinase activity (Eurofins); assay type: biochemical
T7 construct: purchased Eurofins Pharma Discovery Services UK Ltd
Method: as §1, §2, §3, §4, §5, §6, §7, §8

CDK2/cyclin E = biological target: T8, CDK2/cyclin E (Homo sapiens, UniProt P24941); assay: CDK family off-target kinase activity (Eurofins); assay type: biochemical
T8 construct: purchased Eurofins Pharma Discovery Services UK Ltd
Method: as §1, §2, §3, §4, §5, §6, §7, §8

CDK3/cyclin E = biological target: T9, CDK3/cyclin E (Homo sapiens, UniProt Q00526); assay: CDK family off-target kinase activity (Eurofins); assay type: biochemical
T9 construct: purchased Eurofins Pharma Discovery Services UK Ltd
Method: as §1, §2, §3, §4, §5, §6, §7, §8

CDK4/cyclin D3 = biological target: T10, CDK4/cyclin D3 (Homo sapiens, UniProt P11802); assay: CDK family off-target kinase activity (Eurofins); assay type: biochemical
T10 construct: purchased Eurofins Pharma Discovery Services UK Ltd
Method: as §1, §2, §3, §4, §5, §6, §7, §8

CDK5/p25 = biological target: T11, CDK5/p25 (Homo sapiens, UniProt Q00535); assay: CDK family off-target kinase activity (Eurofins); assay type: biochemical
T11 construct: purchased Eurofins Pharma Discovery Services UK Ltd
Method: as §1, §2, §3, §4, §5, §6, §7, §8

CDK5/p35 = biological target: T12, CDK5/p35 (Homo sapiens, UniProt Q00535); assay: CDK family off-target kinase activity (Eurofins); assay type: biochemical
T12 construct: purchased Eurofins Pharma Discovery Services UK Ltd
Method: as §1, §2, §3, §4, §5, §6, §7, §8

CDK6/cyclin D3 = biological target: T13, CDK6/cyclin D3 (Homo sapiens, UniProt Q00534); assay: CDK family off-target kinase activity (Eurofins); assay type: biochemical
T13 construct: purchased Eurofins Pharma Discovery Services UK Ltd
Method: as §1, §2, §3, §4, §5, §6, §7, §8

CDK7/cyclin H/MAT1 = biological target: T14, CDK7/cyclin H/MAT1 (Homo sapiens, UniProt P50613); assay: CDK family off-target kinase activity (Eurofins); assay type: biochemical
T14 construct: purchased Eurofins Pharma Discovery Services UK Ltd
Method: as §1, §2, §3, §4, §5, §6, §7, §8

Cdc7/cyclinB1 = biological target: T15, Cdc7/cyclinB1 (Homo sapiens, UniProt O00311); assay: CDK family off-target kinase activity (Eurofins); assay type: biochemical
T15 construct: purchased Eurofins Pharma Discovery Services UK Ltd
Method: as §1, §2, §3, §4, §5, §6, §7, §8

5-HT1A (serotonin) = biological target: T16, 5-HT1A (serotonin) (Homo sapiens, UniProt P08908); assay: GPCR agonist action testing; assay type: cell-based
T16 construct: Wuxi AppTech (Shanghai, China)
Description: (§9) Supplementary Table 2: Results of GPCR agonist action testing of GFH009 administered at a
(§10) Agonist action against GPCR type shown below
(§11) Target % Agonist Effect @ Max Dose
(§12) M1 (muscarinic Ach) −2.18
(§13) M2 (muscarinic Ach) −0.63

5-HT2A (serotonin) = biological target: T17, 5-HT2A (serotonin) (Homo sapiens, UniProt P28223); assay: GPCR agonist action testing; assay type: cell-based
T17 construct: Wuxi AppTech (Shanghai, China)
Description: as §9, §10, §11, §12, §13

5-HT2B (serotonin) = biological target: T18, 5-HT2B (serotonin) (Homo sapiens, UniProt P41595); assay: GPCR agonist action testing; assay type: cell-based
T18 construct: Wuxi AppTech (Shanghai, China)
Description: as §9, §10, §11, §12, §13

AD2 (adenosine) = assay: GPCR agonist action testing; assay type: cell-based
Description: as §9, §10, §11, §12, §13

CB2 (cannabinoid) = biological target: T19, CB2 (cannabinoid) (Homo sapiens, UniProt P34972); assay: GPCR agonist action testing; assay type: cell-based
T19 construct: Wuxi AppTech (contract laboratory)
Description: as §9, §10, §11, §12, §13

CCKa = biological target: T20, CCKa (Homo sapiens, UniProt P32238); assay: GPCR agonist action testing; assay type: cell-based
T20 construct: Wuxi AppTech (contract laboratory)
Description: as §9, §10, §11, §12, §13

D2 (dopamine) = biological target: T21, D2 (dopamine) (Homo sapiens, UniProt P14416); assay: GPCR agonist action testing; assay type: cell-based
T21 construct: Wuxi AppTech (contract laboratory)
Description: as §9, §10, §11, §12, §13

H1 (histamine) = biological target: T22, H1 (histamine) (Homo sapiens, UniProt P35367); assay: GPCR agonist action testing; assay type: cell-based
T22 construct: Wuxi AppTech (contract laboratory)
Description: as §9, §10, §11, §12, §13

H2 (histamine) = H2 (histamine) (Homo sapiens, UniProt P25021); assay: GPCR agonist action testing; assay type: cell-based
Description: as §9, §10, §11, §12, §13

M1 (muscarinic Ach) = M1 (muscarinic Ach) (Homo sapiens, UniProt P11229); assay: GPCR agonist action testing; assay type: cell-based
Description: as §9, §10, §11, §12, §13

M3 (muscarinic Ach) = M3 (muscarinic Ach) (Homo sapiens, UniProt P20309); assay: GPCR agonist action testing; assay type: cell-based
Description: as §9, §10, §11, §12, §13

a2a (adrenoceptor) = biological target: T23, a2a (adrenoceptor) (Homo sapiens, UniProt P08913); assay: GPCR agonist action testing; assay type: cell-based
T23 construct: Wuxi AppTech (contract laboratory)
Description: as §9, §10, §11, §12, §13

b1 (adrenoceptor) = biological target: T24, b1 (adrenoceptor) (Homo sapiens, UniProt P08588); assay: GPCR agonist action testing; assay type: cell-based
T24 construct: Wuxi AppTech (contract laboratory)
Description: as §9, §10, §11, §12, §13

T14 sequence (P50613 whole entry): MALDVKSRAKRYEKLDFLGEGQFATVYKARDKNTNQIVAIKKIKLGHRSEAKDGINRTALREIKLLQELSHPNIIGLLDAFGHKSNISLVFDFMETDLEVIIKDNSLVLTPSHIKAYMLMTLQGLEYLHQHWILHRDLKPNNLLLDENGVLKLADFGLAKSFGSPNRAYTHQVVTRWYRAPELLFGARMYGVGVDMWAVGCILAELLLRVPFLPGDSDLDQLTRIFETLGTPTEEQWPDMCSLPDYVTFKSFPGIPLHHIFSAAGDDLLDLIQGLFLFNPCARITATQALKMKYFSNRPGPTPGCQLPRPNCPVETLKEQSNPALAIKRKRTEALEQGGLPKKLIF
T14 sequence (P51946 whole entry partner): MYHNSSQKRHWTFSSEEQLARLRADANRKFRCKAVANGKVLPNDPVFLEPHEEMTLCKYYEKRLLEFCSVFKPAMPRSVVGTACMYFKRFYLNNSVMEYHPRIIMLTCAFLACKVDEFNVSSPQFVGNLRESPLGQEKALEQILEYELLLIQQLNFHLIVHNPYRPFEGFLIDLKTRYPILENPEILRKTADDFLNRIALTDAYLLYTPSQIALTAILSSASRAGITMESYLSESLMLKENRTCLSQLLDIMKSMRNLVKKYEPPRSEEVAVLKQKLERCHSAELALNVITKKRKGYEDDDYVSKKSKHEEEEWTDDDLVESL
T14 sequence (P51948 whole entry partner): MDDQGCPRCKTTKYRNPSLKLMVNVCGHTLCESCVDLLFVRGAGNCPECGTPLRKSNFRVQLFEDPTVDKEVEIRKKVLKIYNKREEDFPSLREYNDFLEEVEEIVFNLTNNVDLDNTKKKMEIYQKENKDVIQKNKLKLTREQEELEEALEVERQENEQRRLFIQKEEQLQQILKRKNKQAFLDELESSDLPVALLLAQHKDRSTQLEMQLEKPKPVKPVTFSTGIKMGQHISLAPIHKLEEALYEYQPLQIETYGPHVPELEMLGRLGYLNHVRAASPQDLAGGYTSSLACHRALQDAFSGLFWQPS
T15 sequence (O00311 whole entry): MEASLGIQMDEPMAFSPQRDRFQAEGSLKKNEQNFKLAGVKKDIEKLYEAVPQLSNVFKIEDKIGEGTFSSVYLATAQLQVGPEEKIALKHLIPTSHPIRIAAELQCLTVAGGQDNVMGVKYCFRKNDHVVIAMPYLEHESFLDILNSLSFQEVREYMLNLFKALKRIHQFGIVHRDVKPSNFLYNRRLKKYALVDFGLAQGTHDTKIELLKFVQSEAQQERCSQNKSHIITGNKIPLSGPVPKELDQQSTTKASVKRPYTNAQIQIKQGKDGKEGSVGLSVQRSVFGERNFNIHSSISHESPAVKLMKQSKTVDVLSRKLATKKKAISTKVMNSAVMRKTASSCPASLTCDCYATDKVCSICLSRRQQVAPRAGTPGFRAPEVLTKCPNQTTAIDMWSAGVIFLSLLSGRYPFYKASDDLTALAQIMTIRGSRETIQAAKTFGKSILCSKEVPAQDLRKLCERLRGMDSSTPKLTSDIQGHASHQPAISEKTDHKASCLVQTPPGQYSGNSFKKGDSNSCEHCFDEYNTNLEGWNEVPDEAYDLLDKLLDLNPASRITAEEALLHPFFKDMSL
T4 sequence (Q00536 whole entry): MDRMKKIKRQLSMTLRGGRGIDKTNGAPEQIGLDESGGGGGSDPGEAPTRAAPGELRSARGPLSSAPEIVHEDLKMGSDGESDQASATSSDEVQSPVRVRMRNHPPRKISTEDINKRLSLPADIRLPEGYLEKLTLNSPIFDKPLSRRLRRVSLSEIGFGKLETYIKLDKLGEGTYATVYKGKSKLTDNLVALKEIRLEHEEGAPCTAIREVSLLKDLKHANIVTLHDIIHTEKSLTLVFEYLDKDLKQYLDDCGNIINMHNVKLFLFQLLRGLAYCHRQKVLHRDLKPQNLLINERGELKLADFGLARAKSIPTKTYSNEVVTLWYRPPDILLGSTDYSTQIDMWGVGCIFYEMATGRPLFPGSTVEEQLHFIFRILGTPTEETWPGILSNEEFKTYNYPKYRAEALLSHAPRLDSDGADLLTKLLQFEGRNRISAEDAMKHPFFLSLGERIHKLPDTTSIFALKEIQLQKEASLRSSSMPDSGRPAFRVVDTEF
T4 sequence (Q8ND76 whole entry partner): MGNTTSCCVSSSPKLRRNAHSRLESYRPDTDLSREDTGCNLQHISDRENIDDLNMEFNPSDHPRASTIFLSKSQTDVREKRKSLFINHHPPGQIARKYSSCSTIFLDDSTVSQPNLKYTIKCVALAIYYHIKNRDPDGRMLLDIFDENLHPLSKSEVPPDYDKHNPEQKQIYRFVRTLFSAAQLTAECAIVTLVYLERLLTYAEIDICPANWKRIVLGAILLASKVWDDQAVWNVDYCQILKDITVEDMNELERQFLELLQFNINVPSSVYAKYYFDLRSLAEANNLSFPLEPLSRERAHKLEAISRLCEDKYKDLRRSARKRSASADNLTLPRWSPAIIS
T13 sequence (Q00534 whole entry): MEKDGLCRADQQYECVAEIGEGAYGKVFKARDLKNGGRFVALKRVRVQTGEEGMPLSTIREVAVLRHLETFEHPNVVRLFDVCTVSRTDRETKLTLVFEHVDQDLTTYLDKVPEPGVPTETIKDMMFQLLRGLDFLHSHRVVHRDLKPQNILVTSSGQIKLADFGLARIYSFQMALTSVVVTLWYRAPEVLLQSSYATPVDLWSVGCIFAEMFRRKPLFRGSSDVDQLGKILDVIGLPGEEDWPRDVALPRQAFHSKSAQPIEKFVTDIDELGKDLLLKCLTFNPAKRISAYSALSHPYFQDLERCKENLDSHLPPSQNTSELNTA
T13 sequence (P30281 whole entry partner): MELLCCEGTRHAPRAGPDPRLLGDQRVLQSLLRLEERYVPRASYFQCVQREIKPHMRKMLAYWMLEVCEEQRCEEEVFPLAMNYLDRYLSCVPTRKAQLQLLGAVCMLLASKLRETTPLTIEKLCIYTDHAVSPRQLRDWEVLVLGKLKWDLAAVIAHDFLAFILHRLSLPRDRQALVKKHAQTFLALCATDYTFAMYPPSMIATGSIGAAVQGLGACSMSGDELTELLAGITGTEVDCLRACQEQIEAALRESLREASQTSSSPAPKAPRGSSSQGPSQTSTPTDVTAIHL
T5 sequence (Q00537 whole entry): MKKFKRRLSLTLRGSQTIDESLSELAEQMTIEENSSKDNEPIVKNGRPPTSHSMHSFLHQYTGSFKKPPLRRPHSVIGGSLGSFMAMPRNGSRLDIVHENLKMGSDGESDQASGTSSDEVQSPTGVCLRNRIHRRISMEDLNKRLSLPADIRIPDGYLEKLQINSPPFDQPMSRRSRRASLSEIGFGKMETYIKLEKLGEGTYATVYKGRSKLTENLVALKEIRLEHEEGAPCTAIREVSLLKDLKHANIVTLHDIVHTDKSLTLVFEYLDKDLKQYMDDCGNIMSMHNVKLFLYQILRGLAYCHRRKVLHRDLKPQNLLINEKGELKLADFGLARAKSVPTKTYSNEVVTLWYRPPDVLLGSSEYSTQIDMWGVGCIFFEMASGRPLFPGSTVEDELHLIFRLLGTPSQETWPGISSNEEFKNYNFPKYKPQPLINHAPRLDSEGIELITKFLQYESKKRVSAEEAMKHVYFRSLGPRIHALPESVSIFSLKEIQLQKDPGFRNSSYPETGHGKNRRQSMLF
T5 sequence (Q8ND76 whole entry partner): as the sequence (Q8ND76 whole entry partner) above
T6 sequence (Q07002 whole entry): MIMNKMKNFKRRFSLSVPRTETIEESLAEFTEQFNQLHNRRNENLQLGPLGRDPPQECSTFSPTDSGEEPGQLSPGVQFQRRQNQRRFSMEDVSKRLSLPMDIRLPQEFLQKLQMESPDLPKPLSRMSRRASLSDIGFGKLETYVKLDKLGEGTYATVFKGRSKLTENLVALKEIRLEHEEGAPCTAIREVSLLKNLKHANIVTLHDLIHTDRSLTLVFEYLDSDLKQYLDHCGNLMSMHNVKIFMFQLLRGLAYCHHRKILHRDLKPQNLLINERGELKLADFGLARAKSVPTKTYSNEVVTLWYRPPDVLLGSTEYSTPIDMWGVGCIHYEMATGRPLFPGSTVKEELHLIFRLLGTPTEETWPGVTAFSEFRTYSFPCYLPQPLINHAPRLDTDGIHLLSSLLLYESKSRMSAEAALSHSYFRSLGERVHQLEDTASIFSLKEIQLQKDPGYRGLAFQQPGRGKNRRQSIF
T6 sequence (Q8ND76 whole entry partner): as the sequence (Q8ND76 whole entry partner) above
T12 sequence (Q00535 whole entry): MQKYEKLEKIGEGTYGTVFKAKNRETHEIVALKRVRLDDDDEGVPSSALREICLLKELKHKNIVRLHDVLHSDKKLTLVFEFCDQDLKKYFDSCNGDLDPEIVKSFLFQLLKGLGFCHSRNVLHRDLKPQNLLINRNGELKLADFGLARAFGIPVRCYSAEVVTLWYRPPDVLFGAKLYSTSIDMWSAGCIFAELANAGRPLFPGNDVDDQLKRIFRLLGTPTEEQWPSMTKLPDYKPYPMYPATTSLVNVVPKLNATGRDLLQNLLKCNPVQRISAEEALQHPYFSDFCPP
T12 sequence (Q15078 2-307 partner limits assumed): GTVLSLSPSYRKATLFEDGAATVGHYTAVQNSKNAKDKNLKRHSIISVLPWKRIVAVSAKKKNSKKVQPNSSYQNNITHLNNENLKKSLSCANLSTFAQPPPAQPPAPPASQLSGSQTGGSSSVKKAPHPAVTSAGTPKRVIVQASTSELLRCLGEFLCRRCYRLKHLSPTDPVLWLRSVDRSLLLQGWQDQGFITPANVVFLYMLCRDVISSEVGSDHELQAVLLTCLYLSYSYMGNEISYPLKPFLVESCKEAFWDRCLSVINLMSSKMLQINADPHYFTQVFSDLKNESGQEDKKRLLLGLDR

## COC[C@@H](C)NC1CCC(Nc2cc(-c3csc(NCC4(C#N)CCOCC4)n3)c(Cl)cn2)CC1 (stereo partly shown) [GFH009]
CDK1/cyclin B
  Selectivity vs. CDK9: > 1000
CDK1/cyclin B; 1 µM
  Remaining enzymatic activity (%) after exposure to GFH009: 97%
CDK1/cyclin B; 10 µM
  Remaining enzymatic activity (%) after exposure to GFH009: 50%
CDK12/cyclin K
  Selectivity vs. CDK9: > 1000
CDK12/cyclin K; 1 µM
  Remaining enzymatic activity (%) after exposure to GFH009: 94%
CDK12/cyclin K; 10 µM
  Remaining enzymatic activity (%) after exposure to GFH009: 86%
CDK14/cyclin Y
  Selectivity vs. CDK9: > 100
CDK14/cyclin Y; 1 µM
  Remaining enzymatic activity (%) after exposure to GFH009: 70%
CDK14/cyclin Y; 10 µM
  Remaining enzymatic activity (%) after exposure to GFH009: 39%
CDK16/cyclin Y
  Selectivity vs. CDK9: < 100
CDK16/cyclin Y; 1 µM
  Remaining enzymatic activity (%) after exposure to GFH009: 23%
CDK16/cyclin Y; 10 µM
  Remaining enzymatic activity (%) after exposure to GFH009: 5%
CDK17/cyclin Y
  Selectivity vs. CDK9: < 100
CDK17/cyclin Y; 1 µM
  Remaining enzymatic activity (%) after exposure to GFH009: 30%
CDK17/cyclin Y; 10 µM
  Remaining enzymatic activity (%) after exposure to GFH009: 7%
CDK18/cyclin Y
  Selectivity vs. CDK9: > 100
CDK18/cyclin Y; 1 µM
  Remaining enzymatic activity (%) after exposure to GFH009: 53%
CDK18/cyclin Y; 10 µM
  Remaining enzymatic activity (%) after exposure to GFH009: 12%
CDK2/cyclin A
  Selectivity vs. CDK9: > 1000
CDK2/cyclin A; 1 µM
  Remaining enzymatic activity (%) after exposure to GFH009: 80%
CDK2/cyclin A; 10 µM
  Remaining enzymatic activity (%) after exposure to GFH009: 51%
CDK2/cyclin E
  Selectivity vs. CDK9: > 100
CDK2/cyclin E; 1 µM
  Remaining enzymatic activity (%) after exposure to GFH009: 63%
CDK2/cyclin E; 10 µM
  Remaining enzymatic activity (%) after exposure to GFH009: 27%
CDK3/cyclin E
  Selectivity vs. CDK9: > 100
CDK3/cyclin E; 1 µM
  Remaining enzymatic activity (%) after exposure to GFH009: 74%
CDK3/cyclin E; 10 µM
  Remaining enzymatic activity (%) after exposure to GFH009: 39%
CDK4/cyclin D3
  Selectivity vs. CDK9: > 100
CDK4/cyclin D3; 1 µM
  Remaining enzymatic activity (%) after exposure to GFH009: 70%
CDK4/cyclin D3; 10 µM
  Remaining enzymatic activity (%) after exposure to GFH009: 41%
CDK5/p25
  Selectivity vs. CDK9: > 100
CDK5/p25; 1 µM
  Remaining enzymatic activity (%) after exposure to GFH009: 79%
CDK5/p25; 10 µM
  Remaining enzymatic activity (%) after exposure to GFH009: 43%
CDK5/p35
  Selectivity vs. CDK9: > 100
CDK5/p35; 1 µM
  Remaining enzymatic activity (%) after exposure to GFH009: 66%
CDK5/p35; 10 µM
  Remaining enzymatic activity (%) after exposure to GFH009: 43%
CDK6/cyclin D3
  Selectivity vs. CDK9: > 1000
CDK6/cyclin D3; 1 µM
  Remaining enzymatic activity (%) after exposure to GFH009: 85%
CDK6/cyclin D3; 10 µM
  Remaining enzymatic activity (%) after exposure to GFH009: 58%
CDK7/cyclin H/MAT1
  Selectivity vs. CDK9: > 100
CDK7/cyclin H/MAT1; 1 µM
  Remaining enzymatic activity (%) after exposure to GFH009: 67%
CDK7/cyclin H/MAT1; 10 µM
  Remaining enzymatic activity (%) after exposure to GFH009: 19%
Cdc7/cyclinB1
  Selectivity vs. CDK9: > 100
Cdc7/cyclinB1; 1 µM
  Remaining enzymatic activity (%) after exposure to GFH009: 75%
Cdc7/cyclinB1; 10 µM
  Remaining enzymatic activity (%) after exposure to GFH009: 47%
5-HT1A (serotonin)
  % Agonist Effect @ Max Dose (12 µM): −0.33%
5-HT2A (serotonin)
  % Agonist Effect @ Max Dose (12 µM): −1.68%
5-HT2B (serotonin)
  % Agonist Effect @ Max Dose (12 µM): 4.55%
AD2 (adenosine)
  % Agonist Effect @ Max Dose (12 µM): 21.7%
CB2 (cannabinoid)
  % Agonist Effect @ Max Dose (12 µM): 0.23%
CCKa
  % Agonist Effect @ Max Dose (12 µM): −0.4%
D2 (dopamine)
  % Agonist Effect @ Max Dose (12 µM): 3.66%
H1 (histamine)
  % Agonist Effect @ Max Dose (12 µM): 1.55%
H2 (histamine)
  % Agonist Effect @ Max Dose (12 µM): −0.03%
M1 (muscarinic Ach)
  % Agonist Effect @ Max Dose (12 µM): −2.18%
M3 (muscarinic Ach)
  % Agonist Effect @ Max Dose (12 µM): 0.49%
a2a (adrenoceptor)
  % Agonist Effect @ Max Dose (12 µM): −3.87%
b1 (adrenoceptor)
  % Agonist Effect @ Max Dose (12 µM): 4.53%
